The nature of series [1]: Pharmacokinetic study in the guinea pig, 10 mg/kg oral dosing. Format: in vivo. Also noted: DNAUC(0-inf): unit not given beside the values. Particulars: for DNAUC(0-inf): dose-normalised AUC; for AUC(0-inf) / Cmax / half-life / AUC / MRT: in vivo; for AUC: read-out: AUC0_last; for MRT: read-out: MRT0_last. The procedure: Pharmacokinetic studies in the guinea pig were run using 1 mg/kg IV dosing (20% DMA, 40% TEG, 40% water) and 10 mg/kg oral dosing (2% Tween-80, 98% HPMC (1% water)).

For another series, the target named is recombinant CYP-11 (Homo sapiens (Human), UniProt P15538). The series can be described thus: Cyp11 assay protocol (cortisol formation from 11-deoxycortisol, LC/MS). Format: cell-based. The note with it: AD293 cells over-expressing recombinant CYP-11. On the procedure: (§1) Cyp11 assay protocol: AD293 cells that stably over-express recombinant CYP-11 were seeded in 96 well plates coated with poly D-lysine (15,000 cell per well) and incubated at 37° C. for 24 hours in Dulbecco's Modified Eagle Medium (DMEM) with Fetal Bovine Serum (FBS) that is stripped of hormones by charcoal treatment. The media is then removed, the cells are washed once with Phosphate buffer saline solution, and 50 μL Dulbecco's Modified Eagle Medium (DMEM) with Fetal Bovine Serum (FBS) that is stripped of hormones by charcoal treatment is added. Compounds of the disclosure are then added to the wells in eight concentration spanning 10 μM to 4.5 nM, and the plates are incubated for an additional 60 minutes at 37° C. 11-deoxycortisol is then added (2.0 μM) and the plates are incubated for an additional 12 hours at 37° C. After incubation, 50 uL of the supernatant (medium) is transferred into a fresh plate and 150 uL of an acetonitrile solution containing 200 ng/ml of Telmisartan is added.

A further series addresses recombinant CYP-17 (Homo sapiens (Human), UniProt P05093). The series is described as follows: Cyp17 assay protocol (3H-acetic acid release from [21-3H] 17α-hydroxyl-Pregnenolone). In kind it is cell-based. Particulars: AD293 cells over-expressing recombinant CYP-17. On the procedure: Cyp17 assay protocol: AD293 cells that stably over-express recombinant CYP-17 were seeded in 96 well plates coated with poly D-lysine (15,000 cell per well) and incubated at 37° C. for 24 hours in Dulbecco's Modified Eagle Medium (DMEM) with Fetal Bovine Serum (FBS) that is stripped of hormones by charcoal treatment. The media is then removed, the cells are washed once with Phosphate buffer saline solution, and 50 μL Dulbecco's Modified Eagle Medium (DMEM) with Fetal Bovine Serum (FBS) that is stripped of hormones by charcoal treatment is added. Compounds of the disclosure are then added to the wells in eight concentration spanning 10 μM to 4.5 nM, and the plates are incubated for an additional 60 minutes at 37° C. [21-^3H] 17α-hydroxyl-Pregnenolone is then added (50 nCi per well, 31.25 nM) and the plates are incubated for an additional 4 hours at 37° C. The media is then collected, 200 μL of chloroform is added, and the mixture is shaken for 1 hour. The aqueous layer is then separated and analyzed for the presence of ^3H-acetic acid using a Perkin Elmer Topcount NXT to determine IC50s of the compounds of the disclosure.

A further series has as its target recombinant CYP-21 (Homo sapiens (Human), UniProt P08686). The series can be described thus: Cyp21 assay protocol (11-deoxycortisol formation from 17α-OH Progesterone, LC/MS). Particulars: AD293 cells over-expressing recombinant CYP-21. Format: cell-based. The procedure:
as §1, with “Cyp21” for “Cyp11”, “CYP-21” for “CYP-11”, “(10,000” for “(15,000”, “17α-OH Progesterone” for “11-deoxycortisol”, “(1.0” for “(2.0”, “45 minutes” for “12 hours”

Sequence of recombinant CYP-11 (P15538 25-503): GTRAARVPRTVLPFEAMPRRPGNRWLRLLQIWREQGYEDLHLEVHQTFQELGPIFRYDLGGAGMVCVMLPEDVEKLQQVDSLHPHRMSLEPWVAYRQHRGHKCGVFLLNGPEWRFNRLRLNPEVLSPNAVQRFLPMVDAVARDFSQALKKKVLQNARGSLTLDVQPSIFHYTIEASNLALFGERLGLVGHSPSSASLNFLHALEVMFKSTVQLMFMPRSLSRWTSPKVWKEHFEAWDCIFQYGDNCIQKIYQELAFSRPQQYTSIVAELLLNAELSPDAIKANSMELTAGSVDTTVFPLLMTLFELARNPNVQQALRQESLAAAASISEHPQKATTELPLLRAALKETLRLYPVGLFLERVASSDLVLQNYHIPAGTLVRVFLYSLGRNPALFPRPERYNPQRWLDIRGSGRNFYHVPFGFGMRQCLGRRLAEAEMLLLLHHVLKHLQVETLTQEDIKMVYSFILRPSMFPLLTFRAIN
Sequence of recombinant CYP-21 (P08686 whole entry, species assumed): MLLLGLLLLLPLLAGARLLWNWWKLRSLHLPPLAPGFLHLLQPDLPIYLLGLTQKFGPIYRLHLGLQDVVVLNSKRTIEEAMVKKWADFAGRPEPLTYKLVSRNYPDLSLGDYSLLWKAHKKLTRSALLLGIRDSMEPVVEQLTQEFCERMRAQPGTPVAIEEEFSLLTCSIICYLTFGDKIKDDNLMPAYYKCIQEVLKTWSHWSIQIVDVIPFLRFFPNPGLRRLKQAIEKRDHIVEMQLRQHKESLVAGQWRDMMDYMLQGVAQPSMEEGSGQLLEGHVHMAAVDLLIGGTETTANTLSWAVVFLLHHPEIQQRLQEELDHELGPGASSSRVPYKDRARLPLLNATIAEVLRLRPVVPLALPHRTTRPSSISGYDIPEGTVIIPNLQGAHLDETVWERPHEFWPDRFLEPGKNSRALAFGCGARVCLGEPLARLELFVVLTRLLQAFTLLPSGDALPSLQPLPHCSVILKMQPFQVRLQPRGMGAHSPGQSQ
Sequence of recombinant CYP-17 (P05093 whole entry, species assumed): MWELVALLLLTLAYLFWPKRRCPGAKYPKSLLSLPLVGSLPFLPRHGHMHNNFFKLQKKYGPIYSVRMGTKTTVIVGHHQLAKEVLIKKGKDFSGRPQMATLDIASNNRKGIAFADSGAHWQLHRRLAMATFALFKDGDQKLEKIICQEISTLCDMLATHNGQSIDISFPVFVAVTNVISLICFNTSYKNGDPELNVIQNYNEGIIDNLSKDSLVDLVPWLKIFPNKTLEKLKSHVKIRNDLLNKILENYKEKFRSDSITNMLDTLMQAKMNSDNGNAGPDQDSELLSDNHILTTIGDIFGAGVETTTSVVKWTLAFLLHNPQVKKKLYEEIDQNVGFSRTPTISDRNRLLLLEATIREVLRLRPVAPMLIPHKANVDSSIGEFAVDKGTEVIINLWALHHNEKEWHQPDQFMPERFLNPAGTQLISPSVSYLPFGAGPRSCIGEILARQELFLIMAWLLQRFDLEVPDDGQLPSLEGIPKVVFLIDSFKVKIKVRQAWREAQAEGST

With `CC(=O)N1CCN(c2ccc(/C=C/c3cc(F)cc(-c4ccncc4)c3)cc2)CC1`, in series [1], the AUCExtra turned out to be 43.93%, the “DNAUC(0-inf)” value is 823.1, the area under the curve AUC(0-inf) came to 14900 ng·h/mL and the Cmax was determined as 1020 ng/mL. Further, in series [1], the half-life is 6 h, the AUC amounted to 8230 ng·h/mL and the MRT stood at 5.56 h.

For the compound `N#Cc1cccc(C(=O)N2CCN(c3ccc(/C=C/c4cc(Cl)cc(Cn5ccnc5)c4)cc3)CC2)c1` [Example 18], the IC50 on recombinant CYP-11 turned out to be 4 nM; on recombinant CYP-17 it was 22 nM.

In the case of `Clc1cc(/C=C/c2ccc(N3CCN(CC4CC4)CC3)cc2)cc(Cn2ccnc2)c1` [Example 19], the IC50 on recombinant CYP-11 amounted to 11 nM; on recombinant CYP-17, 17 nM; on recombinant CYP-21, 585 nM.

Consider `CCOC(=O)CNC(=O)N1CCN(c2ccc(/C=C/c3cc(Cl)cc(Cn4ccnc4)c3)cc2)CC1` [Example 20], for which the IC50 is 27 nM on recombinant CYP-11, 41 nM at recombinant CYP-17 and 360 nM on recombinant CYP-21.

Turning to `O=S(=O)(c1cccnc1)N1CCN(c2ccc(/C=C/c3cc(Cl)cc(Cn4ccnc4)c3)cc2)CC1` [Example 21], the IC50 on recombinant CYP-11 amounted to 4 nM; on recombinant CYP-17, 17 nM; on recombinant CYP-21, 1380 nM.

Take `O=C(C1CC1)N1CCN(c2ccc(/C=C/c3cc(Cl)cc(Cn4ccnc4)c3)cc2)CC1` [Example 22]: the results for the IC50 on recombinant CYP-11, at recombinant CYP-17 and on recombinant CYP-21 were 19 nM, 48 nM and 1400 nM, respectively.

`N#Cc1cccc(CN2CCN(c3ccc(/C=C/c4cc(Cl)cc(Cn5ccnc5)c4)cc3)CC2)c1` [Example 23]: the IC50 on recombinant CYP-11 was 7 nM; on recombinant CYP-17, 25 nM; at recombinant CYP-21 it was 285 nM.

Turning to `Fc1cc(/C=C/c2ccc(Br)cc2)cc(-c2ccncc2)c1` [Example 24], the results for the IC50 on recombinant CYP-17 and at recombinant CYP-21 were 42 nM and 2600 nM, respectively.

Take `Fc1cc(/C=C/c2ccc(-c3ccncc3)cc2)cc(-c2ccncc2)c1` [Example 25]: the IC50 was found to be 3700 nM on recombinant CYP-11, 11 nM on recombinant CYP-17 and 850 nM at recombinant CYP-21.

Turning to `CC(=O)N1CCN(c2ccc(/C=C/c3cc(Cl)cc(COc4cccnc4)c3)cc2)CC1` [Example 26], the IC50 on recombinant CYP-11 stood at 140 nM; at recombinant CYP-17 it was 135 nM.

For the compound `CC(=O)N1CCN(c2ccc(/C=C/c3cc(F)cc(-c4cccnc4)c3)cc2)CC1` [Example 27], the IC50 at recombinant CYP-17 amounted to 610 nM.

Take `CC(=O)N1CCN(c2ccc(/C=C/c3cc(Cl)cc(Cc4cccnc4)c3)cc2)CC1` [Example 28]: the values for the IC50 at recombinant CYP-11 and at recombinant CYP-17 were 180 nM and 35 nM, respectively.

On to `CC(=O)N1CCN(c2ccc(/C=C/c3cc(Cl)cc(C(O)(c4cccnc4)C(C)C)c3)cc2)CC1` (stereo not drawn) [Example 29], for which the IC50 at recombinant CYP-11 is 370 nM; at recombinant CYP-17 it was 240 nM; on recombinant CYP-21, 3300 nM.

`CC(=O)N1CCN(c2ccc(/C=C/c3cc(Cl)cc(C(=C(C)C)c4cccnc4)c3)cc2)CC1` [Example 30]: the IC50 at recombinant CYP-11 was 1800 nM; on recombinant CYP-17, 210 nM; on recombinant CYP-21, 2400 nM.

Take `CC(=O)N1CCN(c2ccc(/C=C/c3cc(Cl)cc(-c4ccncc4)c3)cc2)CC1` [Example 31]: the IC50 was 5 nM on recombinant CYP-17 and 1100 nM on recombinant CYP-21.

`CC(=O)N1CCN(c2ccc(/C=C/c3cc(Cl)cc(-c4cccnc4)c3)cc2)CC1` [Example 32]: the IC50 at recombinant CYP-17 turned out to be 620 nM.

`O=S(=O)(c1cccnc1)N1CCN(c2ccc(/C=C/c3cc(F)cc(-c4ccncc4)c3)cc2)CC1` [Example 33]: the IC50 on recombinant CYP-11 worked out at 220 nM; on recombinant CYP-17, 7 nM; at recombinant CYP-21 it was 3300 nM.

In the case of `CCOC(=O)CNC(=O)N1CCN(c2ccc(/C=C/c3cc(F)cc(-c4ccncc4)c3)cc2)CC1` [Example 34], the IC50 was 1300 nM at recombinant CYP-11, 8 nM at recombinant CYP-17 and 1010 nM at recombinant CYP-21.

Take `O=S(=O)(C1CC1)N1CCN(c2ccc(/C=C/c3cc(F)cc(-c4ccncc4)c3)cc2)CC1` [Example 35]: the IC50 was 140 nM at recombinant CYP-11, 5 nM on recombinant CYP-17 and 393 nM on recombinant CYP-21.

Take `CCS(=O)(=O)N1CCN(c2ccc(/C=C/c3cc(F)cc(-c4ccncc4)c3)cc2)CC1` [Example 36]: the IC50 on recombinant CYP-11 worked out at 200 nM; at recombinant CYP-17, 5 nM; at recombinant CYP-21, 520 nM.

For the compound `Fc1cc(CCc2ccc(-c3ccncc3)cc2)cc(-c2ccncc2)c1` [Example 37], the IC50 is 190 nM on recombinant CYP-17 and 490 nM at recombinant CYP-21.

As to `Fc1cc(/C=C/c2ccc(N3CCN(CC4CC4)CC3)cc2)cc(-c2ccncc2)c1` [Example 38], the half-maximal inhibitory concentration (IC50) was 54 nM at recombinant CYP-11, 5 nM on recombinant CYP-17 and 770 nM on recombinant CYP-21.

As for `O=S(=O)(N1CCN(c2ccc(/C=C/c3cc(F)cc(-c4ccncc4)c3)cc2)CC1)C(F)(F)F` [Example 39], the IC50 at recombinant CYP-11 worked out at 1500 nM; on recombinant CYP-17, 5 nM; on recombinant CYP-21 it was 316 nM.

Take `CC(C)S(=O)(=O)N1CCN(c2ccc(/C=C/c3cc(F)cc(-c4ccncc4)c3)cc2)CC1` [Example 40]: the IC50 is 1 nM on recombinant CYP-17 and 190 nM on recombinant CYP-21.

For the compound `O=S(=O)(C1CC1)N1CCN(c2ccc(CCc3cc(F)cc(-c4ccncc4)c3)cc2)CC1` [Example 41], the IC50 came to 3 nM at recombinant CYP-17 and 1200 nM at recombinant CYP-21.

Take `CC(C)S(=O)(=O)N1CCN(c2ccc(CCc3cc(F)cc(-c4ccncc4)c3)cc2)CC1` [Example 42]: the IC50 on recombinant CYP-17 came to 4 nM; on recombinant CYP-21, 1000 nM.

In the case of `CCOC(=O)CNC(=O)N1CCN(c2ccc(CCc3cc(F)cc(-c4ccncc4)c3)cc2)CC1` [Example 43], the IC50 amounted to 160 nM on recombinant CYP-11 and 7 nM on recombinant CYP-17.

For `CCS(=O)(=O)N1CCN(c2ccc(CCc3cc(F)cc(-c4ccncc4)c3)cc2)CC1` [Example 44], the IC50 was 330 nM at recombinant CYP-11, 2 nM at recombinant CYP-17 and 1600 nM at recombinant CYP-21.

In the case of `O=S(=O)(N1CCN(c2ccc(CCc3cc(F)cc(-c4ccncc4)c3)cc2)CC1)C(F)(F)F` [Example 45], the IC50 was 183 nM at recombinant CYP-11, 16.5 nM at recombinant CYP-17 and 2800 nM on recombinant CYP-21.

In the case of `CC(C)=C(c1cccnc1)c1cc(Cl)cc(/C=C/c2ccc(-c3ccncc3)cc2)c1` [Example 46], the IC50 at recombinant CYP-17 is 300 nM.

In the case of `CCOC(=O)CNC(=O)NC1CCN(c2ccc(/C=C/c3cc(Cl)cc(Cn4ccnc4)c3)cc2)CC1` [Example 47], the half-inhibitory concentration (IC50) is 250 nM at recombinant CYP-11, 3.5 nM on recombinant CYP-17 and 73 nM at recombinant CYP-21.

Regarding `O=S(=O)(C1CC1)N1CCN(c2ccc(/C=C/c3cc(F)cc(-c4ccncc4)c3)cc2)CC1` [drawing 724], in series [1], the “DNAUC(0-inf)” value stood at 160, the Cmax turned out to be 172 ng/mL, the AUC was found to be 1600 ng·h/mL and the MRT was found to be 7 h.

Consider `CCS(=O)(=O)N1CCN(c2ccc(/C=C/c3cc(F)cc(-c4ccncc4)c3)cc2)CC1` [drawing 725], for which, in series [1], the AUCExtra is reported as 18.25%, the “DNAUC(0-inf)” value is 330.1, the AUC(0-inf) was found to be 4190 ng·h/mL and the concentration peaked (Cmax) at 540 ng/mL. In series [1], the half-life is 4.8 h, the AUC was determined as 3300 ng·h/mL and the MRT is 5.54 h.

With `O=S(=O)(N1CCN(c2ccc(/C=C/c3cc(F)cc(-c4ccncc4)c3)cc2)CC1)C(F)(F)F` [drawing 726], in series [1], the AUCExtra is listed as 25.87%, the “DNAUC(0-inf)” value is 164.6, the AUC(0-inf) stood at 2450 ng·h/mL and the Cmax worked out at 271 ng/mL. In series [1], the half-life was 5.3 h, the AUC is 1650 ng·h/mL and the MRT was determined as 5.01 h.

Source of the values: US9725436B2, “Cytochrome P450 inhibitors and their method of use” (CORTENDO AB (PUBL), priority 2013, dated 2017).
